Results published in patent publication US7714006B1, “Methods of modifying the bioavailability of metaxalone” (King Pharmaceuticals Research & Development, Inc., priority 2001, dated 2010).

Assay: Effects of age and gender on PK parameters, 1×800 mg data from study 103 and 2×400 mg data from study 105, fed and fasted
Format: in vivo, human
Conditions: 1×800 mg (103) + 2×400 mg (105)
Procedure: The report is based primarily on two similarly designed studies in which PK parameters were determined under fed and fasted conditions for the 2×400 mg dose of metaxalone: • Study AN151607-103 (hereafter referred to as the 103 study): a four-period, randomized crossover trial with treatment conditions 2×400 mg with food, 2×400 mg without food, 1×800 mg with food, 1×800 mg without food; and • Study ELN151607-105 (hereafter referred to as the 105 study): a two-period, randomized crossover trial with treatment conditions 2×400 mg with food and 2×400 mg without food.
(§1) These analyses are still based on the combined group of n=103 subjects (59 from study 103, 44 from study 105). However, the fed and fasted PK values from the 1×800 dosage of study 103 are used instead of the data from the 2×400 dosage.
as §1, with “It is possible to somewhat independently assess the consistency of the results from Sections 3.2 and 3.3 by repeating the analyses using the 1×800 fed and fasted results from study 103. These” for “These”
The same regression modeling strategy as was described in Sections 3.2 and 3.3 was also used. […] The parameter estimates, standard errors, and p-values for the gender and age effects are shown below for the fed and fasted conditions in TABLE XIb: […]

Variability of the fasted PK parameters explained by age (fasted): more than 25% | Pearson correlation, age vs ln(AUC(inf)) (fasted, n=103): 0.513 | Pearson correlation, age vs ln(AUC(last)) (fasted, n=103): 0.522 | Pearson correlation, age vs ln(Cmax) (fasted, n=103): 0.600 | Spearman correlation, age vs ln(AUC(inf)) (fasted, n=103): 0.514 | Spearman correlation, age vs ln(AUC(last)) (fasted, n=103): 0.522 | Spearman correlation, age vs ln(Cmax) (fasted, n=103): 0.635 | Pearson correlation, age vs ln(AUC(inf)) (fasted, females n=42): 0.582 | Pearson correlation, age vs ln(AUC(last)) (fasted, females n=42): 0.596 | Pearson correlation, age vs ln(Cmax) (fasted, females n=42): 0.607 | Spearman correlation, age vs ln(AUC(inf)) (fasted, females n=42): 0.596 | Spearman correlation, age vs ln(AUC(last)) (fasted, females n=42): 0.601 | Spearman correlation, age vs ln(Cmax) (fasted, females n=42): 0.638 | Pearson correlation, age vs ln(AUC(inf)) (fasted, males n=61): 0.441 | Pearson correlation, age vs ln(AUC(last)) (fasted, males n=61): 0.447 | Pearson correlation, age vs ln(Cmax) (fasted, males n=61): 0.567 | Spearman correlation, age vs ln(AUC(inf)) (fasted, males n=61): 0.499 | Spearman correlation, age vs ln(AUC(last)) (fasted, males n=61): 0.501 | Spearman correlation, age vs ln(Cmax) (fasted, males n=61): 0.599 | Variability of the fed PK parameters explained by age (fed): ≤ 5% | Pearson correlation, age vs ln(AUC(inf)) (fed, n=103): 0.237 | Pearson correlation, age vs ln(AUC(last)) (fed, n=103): 0.229 | Pearson correlation, age vs ln(Cmax) (fed, n=103): 0.040 | Spearman correlation, age vs ln(AUC(inf)) (fed, n=103): 0.281 | Spearman correlation, age vs ln(AUC(last)) (fed, n=103): 0.276 | Spearman correlation, age vs ln(Cmax) (fed, n=103): 0.086 | Pearson correlation, age vs ln(AUC(inf)) (fed, females n=42): 0.436 | Pearson correlation, age vs ln(AUC(last)) (fed, females n=42): 0.408 | Pearson correlation, age vs ln(Cmax) (fed, females n=42): 0.258 | Spearman correlation, age vs ln(AUC(inf)) (fed, females n=42): 0.432 | Spearman correlation, age vs ln(AUC(last)) (fed, females n=42): 0.410 | Spearman correlation, age vs ln(Cmax) (fed, females n=42): 0.202 | Pearson correlation, age vs ln(AUC(inf)) (fed, males n=61): 0.023 | Pearson correlation, age vs ln(AUC(last)) (fed, males n=61): 0.022 | Pearson correlation, age vs ln(Cmax) (fed, males n=61): −0.170 | Spearman correlation, age vs ln(AUC(inf)) (fed, males n=61): 0.187 | Spearman correlation, age vs ln(AUC(last)) (fed, males n=61): 0.188 | Spearman correlation, age vs ln(Cmax) (fed, males n=61): −0.001
Compound: Cc1cc(C)cc(OCC2CNC(=O)O2)c1 (centres unmarked) [metaxalone, 5-[(3,5-dimethylphenoxy)methyl]-2 oxazolidinone]
